According to patent US20120122919A1, “PHARMACEUTICAL COMPOSITION COMBINING TENATOPRAZOLE AND A HISTAMINE H2-RECEPTOR ANTAGONIST” (priority 2002, published 2012):

Assay: phase I pharmacokinetic study of tenatoprazole, oral single dose and daily dose for 7 days
Format: in vivo, Caucasian individuals
Procedure: The doses tested were 10, 20, 40 and 80 mg of tenatoprazole.

`COc1ccc2[nH]c([S+]([O-])Cc3ncc(C)c(OC)c3C)nc2n1` (stereo not drawn) [tenatoprazole, 5-methoxy-2-[[(4-methoxy-3,5-dimethyl-2-pyridyl)methyl]sulfinyl]imidazo[4,5-b]pyridine] showed a half-life at 7 days (human, plasma, after administration for seven days, depending on the dose (10-80 mg), read-out: mean elimination half-lives) of 5 to 9.2 h, a T½ elimination half-life (repeated dose (7 days), 40 mg) of 9 h and a T½ elimination half-life (single dose, 80 mg) of 7 h.
